Columns and labels:
[1] = test system: B16F10 tumor cells; test: B16F10 melanoma engrafted C57BL/6 mice, survival; format: in vivo
Protocol: The anti-tumor effects of anti-CTLA-4 antibody treatment combined with 10 nM […] agonist (AGN204647 (IRX4647)) are examined in C57BL/6 mice engrafted with B16F10 tumor cells.

[2] = test system: CD4+ T cells; test: in vivo T cell differentiation in mice (FoxP3 expression in CD4+ T cells of blood and spleen); set-up: species or system mouse; conditions: in vivo assay
Protocol: To expand on the finding above, the in vivo effects of a RARα selective agonist on T cell differentiation was evaluated in a mouse model. Mice were treated with 100 μg of compound 5183 (a RARα agonist) or an equivalent volume of DMSO (vehicle control) every other day for 10 days. Lympocytes from the blood and spleen were then isolated and FoxP3 expression in CD4^+ T cells was assessed.

[3] = test system: Th17 cell; test: in vitro Th17 cell differentiation from naive T cells; format: cell-based, mouse; conditions: in vitro assay
Protocol: (§1) To determine whether a RARα selective agonist could affect T cell differentiation, T cells were incubated with a RARα selective agonist to determine its effect on Foxp3 expression. Naive CD4^+ […] cells were purified from a Foxp3-GFP mouse using flow cytometry by sorting and isolating based upon a GFP^+ phenotype. These cells were activated polyclonally with αCD3 in vitro in the presence of IL-2 and TGF-β. These cells were then cultured in media with various concentrations of compound 5183 (a RARα selective agonist) and the expression of FoxP3-GFP was analyzed by flow cytometry. The RARα selective agonist compound 5183 enhanced differentiation of immunosuppressive Treg cells and inhibited differentiation of inflammatory TH17 cells from naëve T cells in vitro (Table 2).

[4] = test system: Treg cell; test: in vitro Treg cell differentiation from naive CD4+ T cells (FoxP3-GFP, flow cytometry); format: cell-based, mouse; conditions: in vitro assay
Protocol: as §1

[5] = test system: FoxP3+ Treg cells; test: formation of FoxP3+ Treg cells (FIG. 3); format: cell-based
[6] = test system: Th 17 cells; test: formation of Th17 cells (FIG. 3); format: cell-based
[7] = combination with anti-CTLA-4 antibody

`CC1(C)CCC(C)(C)c2cc(C(/C=C/c3cccc(C(=O)O)c3)=N/O)ccc21` [AGN204647] was tested, and the “survival rate at 50 days” value ([1]; agent alone, vehicles only 0%) was 30%, the “survival at 50 days” value ([1]; combination of anti-CTLA-4 antibody and 10 nM RARγ agonist AGN204647) was 100% and the “resistance of surviving mice to tumor re-challenge” value [1, 7] was “resistant to re-challenge with twice the dose of live tumor cells”. For the same compound, the toxicity [1, 7] was “without signs of acute or delayed toxicity”.

`CCOc1c(Br)cc(C(=O)Nc2ccc(C(=O)O)cc2)cc1C(=O)c1ccc(C)cc1` [AGN196996] was tested, and the Th17 cell numbers [2] was “increases Th17 cell numbers”, the Treg cell numbers [2] was “decreases Treg cell numbers” and the Th17 cell numbers [3] was “increases Th17 cell numbers”. For the same compound, the Treg cell numbers [4] was “decreases Treg cell numbers”.

With `CC(/C=C/[C@@H]1C[C@]1(C)c1ccc2c(c1)C(C)(C)CCC2(C)C)=C\C(=O)O` [IRX4204] the “formation of FoxP3+ Treg cells” value [5] was “promotes the formation of FoxP3+ Treg cells” and the “formation of Th 17 cells” value [6] was “inhibits the formation of Th 17 cells”.

From US11648223B2, “Receptor subtype and function selective retinoid and rexinoid compounds in combination with immune modulators for cancer immunotherapy” (Io Therapeutics, Inc., priority 2016, dated 2023)
